This is an account of results in PubChem BioAssay AID1508591.

One may read the half-life as how long it takes for the measured level to halve. High values mean slow decline, low ones rapid decline.

For the data set the following is noted: rat; liver microsomes; pH 7.4; 15.0 min; 1.0 µM. (Microsomes from liver hold many membrane-bound enzymes, among them those of drug oxidation.)

Molecule `CCc1ccc(C2C(C(=O)Nc3ccccc3OC)=C(C)Nc3c(C(=O)Nc4ccc(C)cc4)cnn32)cc1` (stereo not given) returned a half-life of 2.75 min.
In the case of `O=C(NC1CC1)c1nc(-c2cccnc2)c2cnccn12` it was > 30 min; in that of `Cc1ccc(S(=O)(=O)Nc2ccccc2CNc2nc(-c3ccccc3)cs2)cc1`, 1.6 min; in that of `Cc1ccc(S(=O)(=O)Nc2cnccc2C(=O)Nc2ccc(C#N)cc2)cc1`, 7.5 min.
The result for `O=C(CCCCCCC(=O)Nc1ccccc1)NO` reads > 30 min; that for `Cn1nc(-c2ccccc2F)c2cc(C(=O)Nc3cc(F)ccc3F)sc21`, 26.2 min.
In the case of `O=C(Cc1ccc(Cl)c(Cl)c1)Nc1ccc(S(=O)(=O)Nc2ccccc2)cc1` it was 4.2 min.
For the molecule `NC(=O)C1CCN(c2nc(-c3ccccc3)cs2)CC1`, the half-life stood at 3.88 min.
The result for `COc1ccc(C(=O)Nc2nc(-c3ccccc3)cs2)cc1NS(=O)(=O)c1ccc(C)cc1` reads 13 min.
In the case of `NC(=O)C1CCN(c2nc(-c3cccs3)cs2)CC1` it was 3.98 min; in that of `COc1ccc(CCNc2ncnc3c2c(-c2ccccc2)cn3-c2cccc(Cl)c2)cc1OC`, 2.33 min.
In the case of `O=[N+]([O-])c1cccc(CNc2ccc(S(=O)(=O)Nc3nccs3)cc2)c1O` it was > 30 min; in that of `COc1ccc(OC)c(-c2nnc3ccc(-c4ccc(OC)c(O[C@@H]5CCOC5)c4)nn23)c1`, 5.5 min.
For the molecule `CC(C)Oc1cccc(C2CC(=O)Nc3cc4c(cc32)OCO4)c1` (stereo not given), the half-life was 3.46 min.
The result for `CC(=O)Nc1ccc(NC(=O)C(NS(=O)(=O)c2ccc(Br)s2)c2ccccc2)cc1` (stereo not given) reads 8.13 min; that for `CCc1ccc(NC(=O)c2cc3ncccn3n2)cc1`, 2.8 min; that for `CSc1nc(N)cc(Oc2ccc(-c3nc(Nc4cccc(C(F)(F)F)c4)n[nH]3)cc2)n1`, 21.2 min.
The result for `Cc1ccc(S(=O)(=O)NC2CCCCC2)cc1` reads 1 min; that for `COc1cnccc1-c1nc(Nc2ccc(F)c(F)c2)c2ccccc2n1`, > 30 min; that for `CCOc1ccc(CCN(C)C(=O)c2cc3sccc3n2Cc2ccccc2)cc1OCC`, 1.7 min.
In the case of `COc1cc(OC)cc(-c2csc(N3CCC(C(N)=O)CC3)n2)c1` it was 2.09 min; in that of `O=C(Nc1ccc(Oc2ccnc3[nH]ccc23)c(F)c1)c1cccn(-c2ccc(F)cc2)c1=O`, 13.1 min; in that of `COc1ccc(-c2ccc(C(=O)NC3CC(c4cc(=O)[nH]c(N)n4)C3)o2)cc1` (stereo not given), > 30 min.
Molecule `Cc1ccccc1-c1nc(NCc2ccc(-c3cccnc3)cc2)c2ccccc2n1` displayed a half-life of 6.25 min.
Take `CC[C@@H](CO)NC(=O)[C@@H]1C=C2c3cccc4c3c(cn4C)C[C@H]2N(C)C1`: the half-life is > 30 min.
In the case of `Cc1ccc2c(c1)c(=O)c1ccccc1n2CCCC(=O)Nc1cc(Cl)ccc1C` it was 3.79 min; in that of `CC1=C(C(=O)NC2CCCC2)C(c2nn(C)cc2Cl)N=C(Nc2nc3ccccc3o2)N1` (stereo not given), 2.7 min.
In the case of `CS(=O)(=O)c1ccccc1-c1csc(N2CCC(C(N)=O)CC2)n1` it was > 30 min.
The result for `c1ccc(Nc2nc(NCc3ccco3)c3ccccc3n2)cc1` reads 2.09 min; that for `Cc1ccc2c(c1)N(S(=O)(=O)c1cc(-c3onc(C)c3C)ccc1C)CCO2`, 1.56 min; that for `COC(=O)c1ccc(O)c2ncc(N3CCN(C)CC3)cc12`, 4.16 min.
`COc1cc(Cl)ccc1C(=O)Nc1nc(-c2ccccc2)cs1`: the half-life was 14 min.
The molecule `CCCc1ccc(C(=O)NC(=O)c2ccccc2O)cc1` came in with a half-life of 2.37 min.
In the case of `COc1ccccc1N1CCN(C2CCCCC2NS(=O)(=O)c2ccccc2)CC1` (stereo not given) it was 1.69 min; in that of `Cc1cnc(-c2ccccc2C2COC2)nc1NCC1CCN(c2cccnc2)CC1`, > 30 min; in that of `COC(=O)C1=C(C)NC(=O)CC1C(=O)Nc1ccc(Cl)cc1` (stereo not given), 21 min.
The result for `CCOC(=O)N1CCc2c(sc(NCc3ccc(N(C)C)cc3)c2C(=O)Nc2ccc(OC)cc2)C1` reads > 30 min.
The result for `Fc1ccc(-c2csc3ncnc(Sc4nnnn4C4CC4)c23)cc1` reads 4.2 min; that for `CC[C@@]1(O)C(=O)OCc2c1cc1n(c2=O)Cc2c-1nc1ccccc1c2CCNC(C)C`, > 30 min; that for `Cc1ccc(NC(=O)C(Cc2ccccc2)NS(=O)(=O)c2cccs2)cc1Cl` (stereo not given), 1.12 min.
On to `N#Cc1c(NC(=O)c2cccc3ccccc23)sc2c1CCCC2`, for which the half-life stood at 7.59 min.
The result for `COc1ccc(-c2nc(Nc3ccc(F)c(F)c3)c3ccccc3n2)cc1` reads > 30 min; that for `Cc1sc2c(c1C)C(c1ccc(Cl)cc1)=N[C@H](CC(=O)NCCCCNC(=O)COc1cccc3c1C(=O)N([C@H]1CCC(=O)NC1=O)C3=O)c1nnc(C)n1-2`, 4.93 min.
In turn, `Cc1ccc2c(c1)[nH]c1c(N3CCN(Cc4ccccc4)CC3)ncnc12` came in with a half-life of 7.49 min.
The result for `C=CC(=O)N1CCCN(c2cc(NCCC(=O)O)nc(-c3ccccn3)n2)CC1` reads > 30 min.
In the case of `COc1ccc(-c2noc([C@@H]3Cc4nc[nH]c4CN3C(=O)NC3CCCCC3)n2)cc1` it was 6.59 min; in that of `Brc1ccccc1-c1nc(NCc2ccc(-c3cccnc3)cc2)c2ccccc2n1`, 6.55 min.
The result for `CC(C)OC(=O)c1ccnc2cc(C(OCCN3CCCCC3)c3ccccc3Cl)sc12` (stereo not given) reads 4.49 min; that for `CC(C)(C)OC(=O)N[C@@H](Cc1ccc(OS(=O)(=O)c2cccc3cnccc23)cc1)C(=O)N1CCCN(C(=O)OC(C)(C)C)CC1`, 2 min; that for `CN(C)CCNC(=O)c1nc2nc(-c3ccccc3)c(-c3cccc(F)c3)cc2n1C`, > 30 min.
The molecule `CCOc1ccc(OCC)c(NC(=O)C(NS(=O)(=O)c2ccc(Br)s2)c2ccccc2)c1` (stereo not given) had a half-life of 2.04 min.
The result for `Cc1cccc(-c2cc(NC(=O)c3ccccc3C)n(-c3ccccc3)n2)c1` reads 3.18 min.
The result for `CC(C)NC(=O)c1nc(-c2ccc(Cl)nc2)c2ccccn12` reads 19.6 min; that for `Fc1cc(Nc2nc(-c3ccncc3)nc3ccccc23)ccc1N1CCCC1`, 5.8 min.
The result for `O=S(=O)(Nc1nccs1)c1ccc(NCc2cc(Cl)ccc2O)cc1` reads 11 min.
Turning to `Cc1cn(CCN2CCN(c3ccccc3-c3cc(C#N)cc(C(=O)NCCCN4CCCC4)c3)CC2)c2ccccc12`, the half-life is > 30 min.
In the case of `CC1CC(C)(C)N(C(=O)CN2C(=O)c3ccccc3C2=O)c2ccccc21` (stereo not given) it was 1.56 min; in that of `CC[C@H]1CN(C)[C@H]2Cc3c([nH]c4ccccc34)C(=O)C[C@H]1[C@H]2C(=O)OC`, 11.3 min.
In the case of `COc1c(NS(=O)(=O)c2ccc(C)cc2)cccc1C(=O)Nc1nc(-c2ccccc2)cs1` it was 9.7 min; in that of `N#Cc1ccccc1Nc1ncc(-c2cccc3ccccc23)o1`, 5.8 min.
The result for `CN(C)S(=O)(=O)c1cccc(NC(=O)c2ccc[nH]2)c1` reads 10.5 min; that for `COc1ccc(C2(C(=O)N3CCC(n4cc(-c5nc(C)no5)nn4)CC3)CC2)cc1`, 7.38 min; that for `CC(=O)c1c(C)[nH]c(C(=O)Nc2cccc([S+](=O)([O-])Nc3ccncc3)c2)c1C`, > 30 min.
`CN(C(=O)COC(=O)c1csc(NCc2ccccc2)n1)c1ccccc1` gave a half-life of 1.4 min.
The result for `CNC(=O)C1CCN(c2nc(-c3ccc(Br)cc3)cs2)CC1` reads 26.2 min.
